#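 Following 48 hours of exposure in 96-well plates, responses at five concentrations were used to interpolate endpoints linearly. Abbreviation: GI50, concentration required for 50% inhibition of growth.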 Active and inactive are the calls of the source. Rule as the data show it: active = GI50 up to about 1.1 µM and inactive = higher.
# Columns and labels:
# Assay in all cases: inhibition of tumour cell growth, NCI panel, 48 h
# OVCAR-8 = test system: OVCAR-8
# ACHN = test system: ACHN
# RXF 393 = test system: RXF 393
# U-251 = test system: U-251
# NCI-H226 = test system: NCI-H226
# UO-31 = test system: UO-31
# UACC-62 = test system: UACC-62
# NCI-H23 = test system: NCI-H23
# SF-539 = test system: SF-539
# IGROV-1 = test system: IGROV-1
# NCI-H522 = test system: NCI-H522
# OVCAR-3 = test system: OVCAR-3
# SK-MEL-5 = test system: SK-MEL-5
# 786-0 = test system: 786-0
# DMS-273 = test system: DMS-273
# A549 = test system: A549
# KM12 = test system: KM12
# T47D = test system: T47D
# MDA-N = test system: MDA-N
# A498 = test system: A498
SMILES,GI50 (OVCAR-8),GI50 (ACHN),GI50 (RXF 393),GI50 (U-251),GI50 (NCI-H226),GI50 (UO-31),GI50 (UACC-62),GI50 (NCI-H23),GI50 (SF-539),GI50 (IGROV-1),GI50 (NCI-H522),GI50 (OVCAR-3),GI50 (SK-MEL-5),GI50 (786-0),GI50 (DMS-273),GI50 (A549),GI50 (KM12),GI50 (T47D),GI50 (MDA-N),GI50 (A498)
CC1C[C@]2(C[C@@H](C)C(=O)O2)O[C@@H]2CC3(C)[C@@H]4CCC5C(C)(C)OC(=O)C[C@H]6OO[C@]4(CC[C@]3(C)C12)CC56O (stereo partly specified),> 100 µM (inactive),> 100 µM (inactive),> 100 µM (inactive),> 100 µM (inactive),> 100 µM (inactive),> 100 µM (inactive),> 100 µM (inactive),> 100 µM (inactive),> 100 µM (inactive),> 100 µM (inactive),> 100 µM (inactive),> 100 µM (inactive),> 100 µM (inactive),> 100 µM (inactive),> 100 µM (inactive),> 100 µM (inactive),–,–,–,–
COc1ccc(/C=C2\C(=O)N(C(=O)Cc3ccccc3)N=C2C)cc1OC,> 100 µM (inactive),> 100 µM (inactive),–,–,> 100 µM (inactive),> 100 µM (inactive),–,> 100 µM (inactive),> 100 µM (inactive),–,> 100 µM (inactive),> 100 µM (inactive),–,> 100 µM (inactive),> 100 µM (inactive),> 100 µM (inactive),> 100 µM (inactive),–,–,–
COC(=O)C(=Cc1cc(OC)c(OC)c(OC)c1-c1cc2c(cc1C1(C)OCCS1)OCO2)C(=O)OC (stereo unspecified),31.6 µM (inactive),55.3 µM (inactive),26.7 µM (inactive),45.5 µM (inactive),32.2 µM (inactive),–,15.5 µM (inactive),19.8 µM (inactive),40.6 µM (inactive),16.3 µM (inactive),15.8 µM (inactive),15.2 µM (inactive),26.4 µM (inactive),38.8 µM (inactive),23.2 µM (inactive),29.1 µM (inactive),19.1 µM (inactive),–,–,–
C=CCC1(O)c2ccccc2C(=O)c2c(O)ccc(O)c21 (stereo unspecified),12.4 µM (inactive),13.7 µM (inactive),4.12 µM (inactive),3.97 µM (inactive),7.03 µM (inactive),16.8 µM (inactive),4.01 µM (inactive),10.7 µM (inactive),7.93 µM (inactive),5.98 µM (inactive),2.62 µM (inactive),5.65 µM (inactive),8.2 µM (inactive),11.7 µM (inactive),–,7.55 µM (inactive),3.94 µM (inactive),7.74 µM (inactive),2.12 µM (inactive),4.36 µM (inactive)
C/C(=N\N=C1/C(=O)OC(c2ccccc2)=C1C(=O)c1ccccc1)c1ccc([N+](=O)[O-])cc1,35.7 µM (inactive),42.6 µM (inactive),46 µM (inactive),41.5 µM (inactive),27.8 µM (inactive),44.7 µM (inactive),38.9 µM (inactive),92.9 µM (inactive),65.2 µM (inactive),29.2 µM (inactive),27.7 µM (inactive),33.7 µM (inactive),37 µM (inactive),68.7 µM (inactive),–,41.7 µM (inactive),86.3 µM (inactive),42.9 µM (inactive),87.9 µM (inactive),> 100 µM (inactive)
N=C1OC(CN2CCN(c3ccccc3)CC2)CN1C(=S)Nc1ccccc1 (stereo unspecified),99.3 µM (inactive),66.5 µM (inactive),41.1 µM (inactive),78.7 µM (inactive),78.9 µM (inactive),37.2 µM (inactive),48.8 µM (inactive),50.6 µM (inactive),96.2 µM (inactive),92.7 µM (inactive),28.9 µM (inactive),42.8 µM (inactive),35.8 µM (inactive),> 100 µM (inactive),–,94.8 µM (inactive),39.2 µM (inactive),35.6 µM (inactive),84.9 µM (inactive),89.9 µM (inactive)
Cc1csc2nc(-c3ccc([N+](=O)[O-])cc3)c(/C=N/N=C(N)N)n12,0.716 µM (active),1.28 µM (inactive),1.79 µM (inactive),1.8 µM (inactive),1.73 µM (inactive),1.49 µM (inactive),1.71 µM (inactive),1.64 µM (inactive),1.85 µM (inactive),1.44 µM (inactive),1.63 µM (inactive),2.49 µM (inactive),1.91 µM (inactive),1.94 µM (inactive),–,1.84 µM (inactive),1.7 µM (inactive),2.79 µM (inactive),1.8 µM (inactive),1.82 µM (inactive)
CCOP(=O)(OCC)C1=NC=CC=CC1n1c(-c2ccccc2)nn(CC)c1=O (stereo unspecified),> 100 µM (inactive),> 100 µM (inactive),> 100 µM (inactive),> 100 µM (inactive),> 100 µM (inactive),–,> 100 µM (inactive),> 100 µM (inactive),> 100 µM (inactive),> 100 µM (inactive),> 100 µM (inactive),> 100 µM (inactive),> 100 µM (inactive),> 100 µM (inactive),> 100 µM (inactive),> 100 µM (inactive),> 100 µM (inactive),–,–,–

# — ChEMBL document CHEMBL1201862, “PubChem BioAssay data set” (2004)
